Values quoted from earlier work in US20230270709A1, “ANTIVIRAL PHARMACEUTICAL COMPOSITION FOR TOPICAL ADMINISTRATION” (Christian-Albrechts-Universitat Zu Kiel, priority 2020, published 2023).
Where a name gives a salt, the structure may show the parent alone.

Legend:
SARS-CoV-2 = conditions: Hoffmann et al. 2020
SARS-CoV = conditions: pathogenic animal model for SARS-CoV infection; Zhou et al. 2015
[1] = target: transmembrane protease, serine 2 (TMPRSS2) (Homo sapiens, UniProt O15393); conditions: Zhou et al., Antiviral Research 116 (2015)
transmembrane protease, serine 2 (TMPRSS2), sequence (O15393 whole entry): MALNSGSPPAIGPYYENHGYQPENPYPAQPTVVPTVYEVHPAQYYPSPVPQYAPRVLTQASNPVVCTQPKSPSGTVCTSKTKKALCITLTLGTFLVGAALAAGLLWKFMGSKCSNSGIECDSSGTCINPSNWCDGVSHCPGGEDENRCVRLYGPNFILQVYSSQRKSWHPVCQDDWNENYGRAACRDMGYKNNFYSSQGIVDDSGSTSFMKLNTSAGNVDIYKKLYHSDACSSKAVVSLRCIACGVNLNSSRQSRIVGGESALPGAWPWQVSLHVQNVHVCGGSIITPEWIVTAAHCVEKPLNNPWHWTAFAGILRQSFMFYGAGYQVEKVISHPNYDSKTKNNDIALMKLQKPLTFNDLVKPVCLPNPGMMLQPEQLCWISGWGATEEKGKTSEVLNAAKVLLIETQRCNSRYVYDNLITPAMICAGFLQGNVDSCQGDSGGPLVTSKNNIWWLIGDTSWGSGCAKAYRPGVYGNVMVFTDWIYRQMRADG

| Structure (SMILES) | effect on SARS-CoV-2 infections of lung cells (SARS-CoV-2) | antiviral activity in animal model (SARS-CoV) | inhibition of TMPRSS2 [1] |
| --- | --- | --- | --- |
| CN(C)C(=O)COC(=O)Cc1ccc(OC(=O)c2ccc(NC(=N)N)cc2)cc1 [camostat mesylate] | reduce SARS-CoV-2 infections of lung cells | – | – |
| CN(C)C(=O)COC(=O)Cc1ccc(OC(=O)c2ccc(NC(=N)N)cc2)cc1 [camostat] | – | display antiviral activity | inhibit |
| N=C(N)c1ccc2cc(OC(=O)c3ccc(N=C(N)N)cc3)ccc2c1 [nafamostat mesylate] | reduce SARS-CoV-2 infections of lung cells | – | – |
